Source: US12502374B2, “Composition for preventing, alleviating, or treating inflammatory disease containing isookanin or salt thereof as active ingredient” (BioSpectrum, Inc., priority 2020, dated 2025)

Key:
human skin = assay: Human skin safety, repeated insult patch test (Finn chamber); assay type: in vivo; details: 30 healthy adults
Description: In order to confirm that the isookanin according to the present invention is safe for human skin, a skin safety verification test was performed. To this end, a repeated insult patch test was conducted.
Nourishing creams containing the isookanin in amounts of 0.1%, 0.5% and 1%, respectively, were prepared. Specifically, a water phase containing purified water, triethanolamine and propylene glycol was dissolved by heating to 70° C. and then emulsified by adding a solution obtained by dissolving beeswax, liquid paraffin, an oil component, an emulsifier and a preservative by heating to 70° C. After completion of emulsification, the solution was cooled to 45° C., and the isookanin was added thereto in amounts of 0.1%, 0.5% and 1% and dispersed therein, followed by cooling to 30° C. As the content of the isookanin was increased from 0.1% to 0.5% and 1%, the content of liquid paraffin was decreased from 9.91% to 9.51% and 9.01%, respectively, thereby preparing nourishing creams.
Using the nourishing creams prepared as described above, a repeated insult patch test was conducted on the upper arm areas of 30 healthy adults every other day for a total of 9 times for 24 hours per time to determine whether the isookanin irritated the skin.
The patch test was performed using a Finn chamber (Epitest Ltd., Finland). 15 μl of each of the external skin preparations was dropped into the chamber, and then the patch test was performed.
[Equation 1] Average degree of reaction=[[(reaction index×degree of reaction)/(total number of subjects×highest score (4)]×100]÷number of tests (9)
In the degree of reaction, ± represents a score of 1, + represents a score of 2, and ++ represents a score of 4. When the average degree of reaction is less than 3, the corresponding composition is determined to be safe.

COX-2 = target: T1, COX-2 (Homo sapiens, UniProt P35354); assay: COX-2 enzyme activity, cyclooxygenase (COX) activity assay kit; assay type: biochemical; details: 5, 10 and 20 ppm; FIG. 5
T1 construct: BioVision
T1 sequence (P35354 18-604): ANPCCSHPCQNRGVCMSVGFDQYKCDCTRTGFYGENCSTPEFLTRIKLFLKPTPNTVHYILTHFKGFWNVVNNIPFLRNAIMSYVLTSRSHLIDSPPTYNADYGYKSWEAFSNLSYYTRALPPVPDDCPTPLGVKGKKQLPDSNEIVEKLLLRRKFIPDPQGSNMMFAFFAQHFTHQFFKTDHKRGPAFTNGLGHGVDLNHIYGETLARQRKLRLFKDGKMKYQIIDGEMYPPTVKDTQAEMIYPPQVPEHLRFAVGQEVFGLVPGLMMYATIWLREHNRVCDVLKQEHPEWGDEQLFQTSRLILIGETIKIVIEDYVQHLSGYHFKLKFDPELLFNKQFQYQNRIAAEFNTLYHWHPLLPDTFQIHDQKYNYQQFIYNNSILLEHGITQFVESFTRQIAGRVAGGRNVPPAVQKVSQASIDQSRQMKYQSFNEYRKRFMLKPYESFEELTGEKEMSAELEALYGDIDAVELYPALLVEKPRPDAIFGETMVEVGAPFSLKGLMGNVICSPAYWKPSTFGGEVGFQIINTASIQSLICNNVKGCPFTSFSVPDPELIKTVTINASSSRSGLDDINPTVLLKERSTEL
Description: COX-2 enzyme inhibitory activity was measured using a cyclooxygenase (COX) activity assay kit (BioVision). 2 μl of COX probe, 4 μl of diluted COX cofactor, and varying concentrations (5, 10, and 20 ppm) of isookanin were added to the COX assay buffer included in the kit. As a negative control, DMSO was added instead of isookanin, and as a positive control, the COX-2 inhibitor celecoxib was added.

PGE2 = assay: LPS-induced PGE2 secretion in RAW 264.7 macrophages (ELISA); assay type: cell-based, mouse; details: 1, 5 and 10 ppm, LPS 100 ng/mL, FIG. 7
Description: Mouse macrophages (RAW 264.7) were seeded in a 24-well microplate at a density of about 2×10^5 cells per well, and cultured in an incubator for 24 hours at 37° C. under 5% CO2. Thereafter, the cells were treated with each of 1, 5 and 10 ppm of isookanin, and then treated with LPS (100 ng/mL) and cultured, and then the cell culture medium was collected. Next, the secretion level of PGE2 was measured using an ELISA kit. As a negative control group (−), mouse macrophages not treated with isookanin and LPS were used.

HMEC-1 = assay: PGE2-induced vascular endothelial cell tube formation on Matrigel; assay type: cell-based, human; details: 10 ppm, 2 hours pretreatment; 20 μM PGE2, 24 hours; FIGS. 10 and 11
Description: Human vascular endothelial cells (HMEC-1) were seeded in a Matrigel-coated 24-well plate at a density of 1.2×10^5 cells per well, and each well was pretreated with 10 ppm of isookanin for 2 hours. Next, each well was treated with PGE2 at a concentration of 20 μM and incubated for 24 hours. As a negative control, 100 ng/ml of VEGF was used. After 24 hours of incubation, the degree of vascular cell tube formation was observed using a microscope, and the results were photographed with a microscope camera and analyzed with Image J, and are shown in FIGS. 10 and 11.

TLR-2 = target: T2, TLR-2 (Homo sapiens, UniProt O60603); assay: Chitin-induced TLR-2 activation, HEK-Blue TLR2 SEAP reporter cells; assay type: cell-based; details: 1 hour pretreatment, then chitin for 12 hours; FIG. 3
T2 construct: host or cells: HEK-Blue TLR2 cell line
Description: The anti-inflammatory effect of isookanin by inhibition of TLR-2 activation was measured. The HEK-Blue™ TLR2 cell line (InvivoGen, USA) co-transfected with TLR-2 and SEAP (secreted embryonic alkaline phosphatase) reporter genes was used. The SEAP reporter gene contains transcription factors NF-kB and AP-1 binding sites, and thus when NF-kB and AP-1 are activated by TLR-2 activation, SEAP is produced and secreted extracellularly. Specifically, the HEK-Blue™ TLR2 cell line was cultured in DMEM containing 10% FBS, and then seeded in a 48-well plate at a density of 1×10^5 cells per well, and pretreated with isookanin for 1 hour. Next, the cells were treated with chitin (Carbosynth, USA) and cultured again for 12 hours. Here, chitin is a component of demodex and is known as a major trigger of inflammatory rosacea. […] 20 μl of the culture supernatant of the cells cultured for 12 hours was taken, mixed with 80 μl of QUANTI-Blue™ (InvivoGen, USA), and then incubated at 37° C. for 1 hour. The degree of TLR-2 activation was measured by comparing the degree of color development caused by the reaction between Quanti-Blue and extracellularly secreted SEAP, and the results are shown in FIG. 3.

T2 sequence (O60603 21-784): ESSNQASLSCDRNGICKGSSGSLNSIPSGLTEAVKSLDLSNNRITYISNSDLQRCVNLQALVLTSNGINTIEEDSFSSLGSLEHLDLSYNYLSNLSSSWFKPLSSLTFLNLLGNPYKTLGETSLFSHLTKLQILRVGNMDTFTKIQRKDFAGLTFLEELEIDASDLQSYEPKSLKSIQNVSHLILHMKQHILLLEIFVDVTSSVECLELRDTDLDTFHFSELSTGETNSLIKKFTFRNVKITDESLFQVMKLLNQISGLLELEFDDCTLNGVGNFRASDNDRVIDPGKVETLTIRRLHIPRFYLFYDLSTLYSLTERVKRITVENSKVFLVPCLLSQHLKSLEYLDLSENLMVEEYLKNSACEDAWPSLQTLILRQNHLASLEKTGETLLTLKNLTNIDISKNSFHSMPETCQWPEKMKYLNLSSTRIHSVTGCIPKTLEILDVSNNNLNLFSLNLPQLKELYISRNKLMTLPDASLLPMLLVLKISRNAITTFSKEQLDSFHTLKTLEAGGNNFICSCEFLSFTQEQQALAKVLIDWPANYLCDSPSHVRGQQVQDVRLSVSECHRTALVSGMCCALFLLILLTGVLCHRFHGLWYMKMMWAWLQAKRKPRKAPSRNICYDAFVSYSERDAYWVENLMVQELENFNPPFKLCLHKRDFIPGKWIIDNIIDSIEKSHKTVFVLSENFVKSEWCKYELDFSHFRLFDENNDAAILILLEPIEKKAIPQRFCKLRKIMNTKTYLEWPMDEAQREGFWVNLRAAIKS

**Q.** `O=C1C[C@@H](c2ccc(O)c(O)c2)Oc2c1ccc(O)c2O` [isookanin] was tested. Which “Average degree of reaction” value (human skin; upper arm, 24 hours per patch, Equation 1, less than 3 is determined to be safe) did it give?
**A.** ≤ 3

**Q.** And the “skin safety conclusion of the repeated insult patch test” value (human skin; nourishing creams with 0.1%, 0.5% and 1% isookanin)?
**A.** safe substance that shows no remarkable cumulative irritation aspect

**Q.** And the “inhibition of COX-2 enzyme activity” value (COX-2)?
**A.** inhibiting the activity of COX-2 enzyme in a concentration-dependent manner

**Q.** And the “inhibition of LPS-induced PGE2 expression” value (PGE2)?
**A.** inhibiting the LPS-induced expression of PGE2 in a concentration-dependent manner

**Q.** What about the “inhibition of human vascular endothelial cell tube formation induced by PGE2” value (HMEC-1) of the same compound?
**A.** effectively inhibiting human vascular endothelial cell tube formation induced by PGE2

**Q.** And the “inhibition of chitin-induced activation of TLR-2 signaling” value (TLR-2)?
**A.** effectively inhibiting the chitin-induced activation of TLR-2 signaling
